Results reported in patent publication US20040248860A1, “Use of selective progesterone receptor modulators for the treatment of androgen deficiency” (priority 2002, published 2004).

Key:
[1] = target: T1, progesterone receptor (Oryctolagus cuniculus, UniProt P06186); details: rabbit model, scale of 0-4; cited from earlier work
T1 construct: effects of compounds at the progesterone receptor using a rabbit model; from tissue; host or cells: live rabbit (in vivo)
T1 sequence (P06186 1-930): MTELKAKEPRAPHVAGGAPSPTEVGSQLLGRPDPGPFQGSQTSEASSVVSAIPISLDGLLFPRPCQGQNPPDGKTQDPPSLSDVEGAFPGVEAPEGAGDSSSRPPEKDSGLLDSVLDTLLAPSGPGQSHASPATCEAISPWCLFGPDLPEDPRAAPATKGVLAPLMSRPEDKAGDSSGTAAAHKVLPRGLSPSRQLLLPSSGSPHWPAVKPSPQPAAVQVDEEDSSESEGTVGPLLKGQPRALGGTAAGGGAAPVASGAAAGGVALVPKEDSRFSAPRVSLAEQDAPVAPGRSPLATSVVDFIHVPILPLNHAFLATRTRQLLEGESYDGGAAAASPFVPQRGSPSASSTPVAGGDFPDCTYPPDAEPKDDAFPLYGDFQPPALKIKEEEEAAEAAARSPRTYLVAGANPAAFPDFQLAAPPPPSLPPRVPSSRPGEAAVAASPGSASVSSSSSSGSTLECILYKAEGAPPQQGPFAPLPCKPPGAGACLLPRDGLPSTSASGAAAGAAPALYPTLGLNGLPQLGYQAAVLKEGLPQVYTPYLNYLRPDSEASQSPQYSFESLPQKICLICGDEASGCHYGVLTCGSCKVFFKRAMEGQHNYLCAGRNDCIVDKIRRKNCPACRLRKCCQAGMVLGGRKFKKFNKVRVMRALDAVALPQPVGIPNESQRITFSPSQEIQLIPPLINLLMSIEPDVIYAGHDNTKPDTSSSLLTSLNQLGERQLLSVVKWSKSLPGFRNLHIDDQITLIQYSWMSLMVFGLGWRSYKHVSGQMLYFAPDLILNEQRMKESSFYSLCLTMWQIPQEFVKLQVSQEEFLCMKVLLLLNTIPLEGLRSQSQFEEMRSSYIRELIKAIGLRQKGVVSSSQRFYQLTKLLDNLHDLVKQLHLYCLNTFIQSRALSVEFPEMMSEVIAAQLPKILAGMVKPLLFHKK

[2] = system: total testosterone levels; assay: Phase II study of J867: total testosterone levels over 12 weeks; format: in vivo, human (female subjects); details: for mean testosterone concentration increase over the treatment period: female subjects, 12 week treatment, change from baseline
Protocol: (§1) The effect of SPRMs on testosterone levels and SHBG levels was studied using various doses of J867 over three months. The study was a phase II, multi-center, randomized, double blind, parallel group study of J867 at doses of 5 mg, 10 mg, and 25 mg once a day (QD)compared to placebo. Approximately 120 female subjects between the ages of 18 and 49 were enrolled in the study and randomly assigned to one of the four dosing groups above. During the 12 week study, testosterone and SHBG were measured at screening visits during weeks 2, 4, 8, and 12 of the study.
FIG. 1 is a graph showing total testosterone levels as a function of time during the study. […] Testosterone concentrations were relatively constant for the group receiving placebo. […] Over the treatment period, the mean testosterone concentrations for the 5 mg QD group increased approximately 7-15 ng/dL; the mean increase for the 10 mg QD group was approximately 15-21 ng/dL; and the mean concentrations observed following treatment with 25 mg QD increased approximately 16-25 ng/dL.

[3] = system: sex hormone-binding globulin (SHBG); assay: Phase II study of J867: SHBG levels over 12 weeks; format: in vivo, human (female subjects); details: 12 week treatment
Protocol: as §1
SHBG levels were also measured at weeks 2, 4, 8, and 12 of the study.

Compound | McPhail score [1] | mean testosterone concentration increase over the treatment period ([2]; 5 mg QD) | mean testosterone concentration increase over the treatment period ([2]; 10 mg QD) | mean testosterone concentration increase over the treatment period ([2]; 25 mg QD) | total testosterone levels (FIG. 1) ([2]; all doses (5, 10, 25 mg QD) compared to placebo) | visit with largest mean increase of testosterone from baseline ([2]; all three dose groups (5, 10, 25 mg QD)) | testosterone concentrations at the end of the study ([2]; all three dose groups, week 12) | mean level of SHBG during treatment ([3]; 5 mg QD) | mean level of SHBG during treatment ([3]; 10 mg QD) | mean level of SHBG during treatment ([3]; 25 mg QD)
CC#C[C@]1(O)CC[C@H]2[C@@H]3CCC4=CC(=O)CCC4=C3[C@@H](c3ccc(N(C)C)cc3)C[C@@]21C [RU486, mifepristone] | less than 0.5 |  |  |  |  |  |  |  |  | 
CC(=O)[C@H]1CC[C@H]2[C@@H]3CCC4=CC(=O)CC[C@]4(C)[C@H]3CC[C@]12C [progesterone] | 4 |  |  |  |  |  |  |  |  | 
COC[C@]1(OC)CC[C@H]2[C@@H]3CCC4=CC(=O)CCC4=C3[C@@H](c3ccc(/C=N/O)cc3)C[C@@]21C [J867, [4-[17β-Methoxy-17α-(methoxymethyl)-3-oxoestra-4,9-dien-11β-yl]benzaldehyd-(1E)-oxim]] |  | 7 to 15 ng/dL | 15 to 21 ng/dL | 16 to 25 ng/dL | testosterone levels increased with all doses | 2 week | still elevated above baseline | remained relatively constant | decreased from baseline | decreased from baseline
